Key:
[1] = Particle size by laser diffractometry (Malvern Mastersizer) following micronisation; format: physicochemical; conditions: for Feed particles % <10 μm: before micronisation; for % <10 μm / D(0.1) / D(0.5) / D(0.9): result after micronisation
Excerpt: In a still further embodiment the composition comprises rabeximod in the form of a dry powder, e.g. a micronized powder. The particle size distribution can be determined by means of laser diffractometry. In a preferred embodiment, a Malvern Instru-ments Mastersizer is used to determine the particle size distribution. Using a Malvern Mastersizer apparatus, volume-based size distribution parameters will typically be re-ported, e.g. in the form of the D10, D50 and D90 values. The average particle size (D50-value), which is also denoted D50-value of the integral volume distribution, is defined in the context of this invention as the particle diameter at which 50 percent by volume of the particles have a smaller diameter than the diameter which corresponds to the D50-value. Likewise, 50 percent by volume of the particles have a larger diameter than the D50-value. Analogously, the D90-value of the integral volume distribution is defined as the particle diameter at which 90 percent by volume of the particles have a smaller diameter than the diameter which corresponds to the D90-value. Corre-spondingly, the D10-value of the integral volume distribution is defined as the particle diameter at which 10 percent by volume of the particles have a smaller diameter than the diameter which corresponds to the D10-value. Typically, in accordance with the present invention, the Rabeximod (micronized) dry powder has a particle size characterized by a D10 within the range of 0.5-1.0 μm, a D50 within the range of 1.5-3.5 μm, and/or a D90 within the range of 5.5-9.9 μm, when measured using laser light diffractometry.
The micronisation operation is performed using a standard jet-mill. The set point for the particle size was that not less than 90% of the particles should be smaller than 10 μm. In-process samples were drawn and analyzed using a Malvern Mastersizer during the process to verify that a sufficient size reduction had been achieved (Malvern Mastersizer 2000 instrument, equipped with a Scirocco 2000(A) dispersion unit and a Micro Tray, operated at 2.5 bar, a feed rate of 60%, a measuring time of 5 seconds and a background time of 5 second; compliant with Ph.Fur method 2.9.31).
Results of the micronisation step in particle size is provided in Table 1 for Rabeximod drug substance batches.

healthy male volunteers = test: Phase 1 clinical trial: safety, tolerability, pharmacokinetics of single and multiple oral rising doses; format: in vivo, human
Excerpt: The Phase 1 study assessed the safety, tolerability, pharmacokinetics and pharmacodynamics of single and multiple oral rising doses of Rabeximod (in a capsule formulation as described in the preceding sections) in healthy male volunteers. The study also included an open-label, randomised, two-period crossover part that was designed to investigate the effect of food on the pharmacokinetics of Rabeximod. In total, 87 healthy male subjects were enrolled into the study.

[2] = tested on: patients diagnosed with active RA; test: Phase II clinical trial in combination with stable dose of methotrexate; format: in vivo, human
Experimental: A total of 225 patients diagnosed with active RA based on the American Rheu-matism Association (ARA) revised criteria were randomized to receive one of the following treatments: • 6.25 mg of Rabeximod (daily) • 15 mg of Rabeximod (daily) • 37.5 mg of Rabeximod (daily) • Placebo
Study drug was provided in the form of a capsule comprising micronized rabeximod, as described in the preceding sections. Placebo was provided in the form of a capsule identical in appearance to the study drug formulation. In all treatment groups patients were required to continue taking a stable dose of methotrexate. Over 200 patients completed the study. During the study, safety, efficacy and pharmaco-kinetic/pharmacodynamic properties of the study drug formulation were assessed with appropriate tests.

## Cc1cc2nc3c4cc(Cl)ccc4n(CC(=O)NCCN(C)C)c3nc2cc1C [146-32]
[1]
  Feed particles % <10 μm: 41.9%
  % <10 μm: 98.1%
  D(0.1): 0.7 μm
  D(0.5): 2.2 μm
  D(0.9): 8.2 μm

## Cc1cc2nc3c4cc(Cl)ccc4n(CC(=O)NCCN(C)C)c3nc2cc1C [262-1]
[1]
  Feed particles % <10 μm: 29.0%
  % <10 μm: 94.5%
  D(0.1): 0.7 μm
  D(0.5): 2.2 μm
  D(0.9): 8.4 μm

## Cc1cc2nc3c4cc(Cl)ccc4n(CC(=O)NCCN(C)C)c3nc2cc1C [compound 153]
[1]
  Feed particles % <10 μm: 32.7%
  % <10 μm: 99.1%
  D(0.1): 0.6 μm
  D(0.5): 1.9 μm
  D(0.9): 5.7 μm

## Cc1cc2nc3c4cc(Cl)ccc4n(CC(=O)NCCN(C)C)c3nc2cc1C [compound 149]
[1]
  Feed particles % <10 μm: 30.9%
  % <10 μm: 99.1%
  D(0.1): 0.6 μm
  D(0.5): 2.0 μm
  D(0.9): 5.9 μm

## Cc1cc2nc3c4cc(Cl)ccc4n(CC(=O)NCCN(C)C)c3nc2cc1C [262-2]
[1]
  Feed particles % <10 μm: 32.6%
  % <10 μm: 92.6%
  D(0.1): 0.7 μm
  D(0.5): 2.2 μm
  D(0.9): 7.6 μm

## Cc1cc2nc3c4cc(Cl)ccc4n(CC(=O)NCCN(C)C)c3nc2cc1C [Rabeximod, 9-Chloro-2,3-dimethyl-6-(N,N-dimethylaminoethylamino-2-oxoethyl)-6H-indolo-[2,3b]quinoxaline]
Healthy male volunteers; on average, following repeated once daily dosing (Day 14)
  time plasma concentrations measurable post dose: up to 168 hours
Healthy male volunteers; repeated once daily administration
  increase of systemic exposure (AUC0-t) with dose: trend was also noted
Healthy male volunteers; single administration at 12.5 mg to 600 mg
  increase of systemic exposure (AUC0-t) with dose: approximately dose-proportional
Healthy male volunteers; single dose of 600 mg, and multiple dose of 600 mg loading followed by 100 mg
  tolerability, higher doses: less well tolerated due to phototoxicity reactions
Healthy male volunteers; single oral doses up to 400 mg
  tolerability, single doses: well tolerated
Healthy male volunteers; up to a 200 mg loading dose followed by 50 mg maintenance dose
  tolerability, multiple oral doses: well tolerated
[2]; 15 mg daily
  most optimal treatment based on the efficacy and safety results: most optimal
[2]; 6.25, 15 or 37.5 mg daily with methotrexate, p<0.05
  effects for key secondary endpoints of treatment: therapeutically meaningful and statistically significant
[2]; Power Model, dose range 6.25 to 37.5 mg, patients with moderate or severe RA, on average
  predicted increase of AUC0-t and Cmax for a doubling in dose: 2 fold
[2]; repeated oral administration
  kinetics with respect to time (accumulation in plasma consistent with t1/2): linear with respect to time
